The source of these data is patent US12370161B2, “Composition for treating atopy or pruritus comprising N-acetyl or N-acyl amino acid” (STEMDR INC., priority 2017, dated 2025).

SMILES strings stand for the structures.

In the assay the test system is atopic dermatitis-induced Nc/Nga mouse. Kind of assay: SCORAD clinical skin score, DNFB-induced atopic dermatitis in Nc/Nga mouse. The format is in vivo. More on the design: key to Mouse 1 Erythema / Mouse 2 Eschar / Mouse 2 Dryness / Mouse 2 Abrasion / Mouse 1 Edema / Mouse 1 Eschar / Mouse 1 Dryness / Mouse 1 Abrasion / Mouse 2 Erythema / Mouse 2 Edema / Mouse 3 Erythema / Mouse 3 Edema / Mouse 3 Eschar / Mouse 3 Dryness / Mouse 3 Abrasion: 0 = no symptom, 1 = mild, 2 = moderate, 3 = severe; key to Mouse 1 Sum / Mean (of Sum, SCORAD) / Mouse 3 Sum: sum of individual symptom scores, each graded 0-3. The conditions noted are these: for Mouse 1 Erythema: DNFB Nc/Nga (FIG. 8), 0.1% in PBS, 200 μL on back skin daily day 15-21; for Mouse 1 Erythema / Mouse 1 Abrasion / Mouse 1 Dryness / Mouse 1 Edema / Mouse 1 Eschar / Mouse 1 Lichenification / Mouse 2 Abrasion / Mouse 2 Dryness / Mouse 2 Edema / Mouse 2 Erythema / Mouse 2 Eschar / Mouse 2 Lichenification / Mouse 3 Abrasion / Mouse 3 Dryness / Mouse 3 Edema / Mouse 3 Erythema / Mouse 3 Eschar / Mouse 3 Lichenification: graded per Example 4; for Mouse 1 Abrasion / Mouse 1 Dryness / Mouse 1 Edema / Mouse 1 Eschar / Mouse 1 Lichenification / Mouse 1 Sum / Mouse 2 Abrasion / Mouse 2 Dryness / Mouse 2 Edema / Mouse 2 Erythema / Mouse 2 Eschar / Mouse 2 Lichenification / Mouse 2 Sum / Mouse 3 Abrasion / Mouse 3 Dryness / Mouse 3 Edema / Mouse 3 Erythema / Mouse 3 Eschar / Mouse 3 Lichenification / Mouse 3 Sum / Mean (of Sum, SCORAD): DNFB Nc/Nga, 0.1% topical day 15-21; for Mouse 1 Sum / Mouse 2 Sum / Mouse 3 Sum: sum of individual scores; for Mean (of Sum, SCORAD): mean of 3 mice. The protocol:
In order to establish a model more similar to an atopy model than that of the Balb/c mice, atopy was induced in Nc/Nga mouse mice. Specifically, after inducing DNFB sensitization by applying 100 μL of 0.35% 2,4-dinitrofluorobenzene (DNFB) in acetone/olive oil (3:1) on the shaved back skin, dermatitis was induced by applying 100 μL of 0.15% DNFB for 4-20 days, every other day. Control mice were treated with a vehicle of the same volume (FIG. 1B).
After dissolving an N-acetyl or N-acylamino acid in phosphate-buffered saline to 0.1%, 200 μL of the solution was applied on the back skin of the mice every day, from day 22 until day 28 for the Balb/c atopic dermatitis model, and from day 15 until day 21 for the Nc/Nga atopic dermatitis model. When the N-acetyl or N-acylamino acid was treated together with DNFB, they were treated with 12-hour intervals in order to avoid direct reaction between the DNFB and the N-acetyl or N-acylamino acid. A non-treated group and a 2,4-dinitrofluorobenzene (DNFB) group were treated with phosphate-buffered saline of the same volume (FIGS. 1A-1B). As the N-acetylamino acid, products purchased from Sigma-Aldrich (USA), MP scientific (USA), TCI (Tokyo Chemical Industry, Japan), Santacruz (USA), etc. were used without purification.
The degree of skin soothing and the severity of atopic dermatitis were evaluated macroscopically according to the previously established SCORAD (SCORing Atopic Dermatitis) method (Oranje et al., 2007). The degree of symptoms such as edema, erythema, eschar, dryness, abrasion, lichenification, etc. was graded from 0 to 3 (0, no symptom; 1, mild; 2, moderate; 3, severe). The overall dermatitis score was determined from the sum of all individual scores (Table 1). The assessment was performed by an investigator who was blind to the grouping of the mice.
Skin-soothing effect and the severity of dermatitis were evaluated for the acyl derivatives of tryptophan synthesized in Example 9, the acyl derivative of alanine synthesized in Example 10 and N-palmitoylalanine (purchased from Santacruz (USA)) according to the method of Example 4 (Table 2)

Take `CCCCC(=O)N[C@@H](Cc1c[nH]c2ccccc12)C(=O)O` [N-pentanoyl L-tryptophan, N-pentanoyl-L-tryptophan]: the “Mouse 1 Erythema” value worked out at 2, the “Mouse 1 Abrasion” value was 1, the “Mouse 1 Dryness” value stood at 2 and the “Mouse 1 Edema” value was 2. Also, the “Mouse 1 Eschar” value amounted to 2, the “Mouse 1 Lichenification” value stood at 2, the “Mouse 1 Sum” value was 11 and the “Mouse 2 Abrasion” value was found to be 1. Besides, the “Mouse 2 Dryness” value was found to be 2, the “Mouse 2 Edema” value stood at 2, the “Mouse 2 Erythema” value is listed as 2 and the “Mouse 2 Eschar” value is 1. Besides, the “Mouse 2 Lichenification” value stood at 2, the “Mouse 2 Sum” value is reported as 10, the “Mouse 3 Abrasion” value came out at 2 and the “Mouse 3 Dryness” value is given as 1. The “Mouse 3 Edema” value is 2, the “Mouse 3 Erythema” value was determined as 2, the “Mouse 3 Eschar” value is given as 2 and the “Mouse 3 Lichenification” value is listed as 1. Besides, the “Mouse 3 Sum” value was 10 and the “Mean (of Sum, SCORAD)” value was 10.3.
Turning to `CCCCCCCCCCCCCCCCCC(=O)N[C@@H](Cc1c[nH]c2ccccc12)C(=O)O` [N-stearyl-L-tryptophan, N-stearoyl-L-tryptophan], the “Mouse 1 Erythema” value turned out to be 2, the “Mouse 1 Abrasion” value was determined as 2, the “Mouse 1 Dryness” value turned out to be 2 and the “Mouse 1 Edema” value is 2. In addition, the “Mouse 1 Eschar” value stood at 2, the “Mouse 1 Lichenification” value is 2, the “Mouse 1 Sum” value is given as 12 and the “Mouse 2 Abrasion” value is recorded as 2. Also, the “Mouse 2 Dryness” value came to 2, the “Mouse 2 Edema” value was 2, the “Mouse 2 Erythema” value was determined as 2 and the “Mouse 2 Eschar” value is listed as 1. Besides, the “Mouse 2 Lichenification” value was determined as 1, the “Mouse 2 Sum” value is reported as 10, the “Mouse 3 Abrasion” value came out at 2 and the “Mouse 3 Dryness” value is reported as 1. The “Mouse 3 Edema” value stood at 2, the “Mouse 3 Erythema” value came out at 2, the “Mouse 3 Eschar” value is on record as 2 and the “Mouse 3 Lichenification” value stood at 2. For the same compound, the “Mouse 3 Sum” value was found to be 11 and the “Mean (of Sum, SCORAD)” value is 11.
In the case of `CC(=O)N[C@@H](C)C(=O)O` [D-form N-acetylalanine, N-acetylalanine, reference compound], the “dermatitis-treating effect of L-, L/D- and D-form (FIG. 6)” value (Nc/Nga atopic dermatitis model, 0.1%) is “no effect”.
As to `CCCCCCCC/C=C\CCCCCCCCCCCC(=O)N[C@@H](Cc1c[nH]c2ccccc12)C(=O)O` [N-(Z)-docos-13-enoyl L-tryptophan, N—(Z)-docos-13-enoyl-L-tryptophan], the “Mouse 1 Erythema” value was 1, the “Mouse 1 Abrasion” value was 1, the “Mouse 1 Dryness” value is reported as 1 and the “Mouse 1 Edema” value is given as 1. Further, the “Mouse 1 Eschar” value was 1, the “Mouse 1 Lichenification” value was 0, the “Mouse 1 Sum” value was determined as 5 and the “Mouse 2 Abrasion” value is reported as 1. Moreover, the “Mouse 2 Dryness” value stood at 2, the “Mouse 2 Edema” value is on record as 1, the “Mouse 2 Erythema” value was determined as 1 and the “Mouse 2 Eschar” value was determined as 2. Besides, the “Mouse 2 Lichenification” value stood at 0, the “Mouse 2 Sum” value is 7, the “Mouse 3 Abrasion” value was 1 and the “Mouse 3 Dryness” value is given as 2. Also, the “Mouse 3 Edema” value was found to be 1, the “Mouse 3 Erythema” value is listed as 2, the “Mouse 3 Eschar” value came out at 2 and the “Mouse 3 Lichenification” value was determined as 1. Moreover, the “Mouse 3 Sum” value is 9 and the “Mean (of Sum, SCORAD)” value is 7.
